These results are taken from ChEMBL document CHEMBL1201862, “PubChem BioAssay data set” (2004).

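Grown in 96-well plates, cells were treated for 48 hours with each compound at five concentrations. Insufficient inhibition: endpoint recorded as highest concentration tested. At the GI50, growth is halved.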 The source made the active and inactive calls. Rule as the data show it: active = GI50 up to about 1.1 µM and inactive = higher.

Test systems include M19-MEL; K562; RXF 393; HT-29; SN12C; SK-MEL-28; OVCAR-4; A549; OVCAR-5; SNB-19; KM12; DMS-273; HL-60; SK-MEL-5; SR.
Experiment in all cases: inhibition of tumour cell growth, NCI panel, 48 h

For the molecule `CC(=O)OC12c3ccccc3C1CCCC21OCCCO1` (centres undefined), the GI50 in the assay on M19-MEL, in the assay with K562, in the assay with RXF 393, with HT-29, in the assay on SN12C and in the assay on SK-MEL-28 was > 100 µM (inactive) throughout. For the same molecule, the GI50 in the assay on OVCAR-4, in the assay with A549, with OVCAR-5, with SNB-19, with KM12 and in the assay with DMS-273 was > 100 µM (inactive) throughout.

As to `CN(/N=C/c1cccc2cccnc12)c1ccccc1`, the GI50 with M19-MEL was > 100 µM (inactive); with K562, > 100 µM (inactive); in the assay with RXF 393, 41.9 µM (inactive); in the assay with HT-29, 44.2 µM (inactive); in the assay with HL-60, > 100 µM (inactive); in the assay on SN12C it was > 100 µM (inactive). In addition, the GI50 was > 100 µM (inactive) with SK-MEL-5; > 100 µM (inactive) in the assay on SK-MEL-28; 87.5 µM (inactive) in the assay on OVCAR-4; > 100 µM (inactive) in the assay on A549; > 100 µM (inactive) in the assay on OVCAR-5; 59.8 µM (inactive) in the assay with SNB-19. The GI50 with KM12 is 78.3 µM (inactive); in the assay on DMS-273, 85.7 µM (inactive).

Take `CC1=NOC(=O)C1/N=N/c1ccc(Br)c(C)c1` (centres undefined): the GI50 in the assay with M19-MEL is 18.6 µM (inactive); in the assay with K562 it was 13 µM (inactive); in the assay on RXF 393, 19.7 µM (inactive); in the assay on HT-29, 36.2 µM (inactive); in the assay on HL-60, 8.39 µM (inactive); in the assay with SN12C, 18.2 µM (inactive). Besides, the GI50 in the assay with SK-MEL-5 was 12.7 µM (inactive); in the assay with SK-MEL-28, 26.6 µM (inactive); in the assay on OVCAR-4, 15.2 µM (inactive); in the assay on A549, 20.3 µM (inactive); with OVCAR-5 it was 24.9 µM (inactive); in the assay with SNB-19, 31.2 µM (inactive). The GI50 was 26.1 µM (inactive) with KM12 and 20.2 µM (inactive) in the assay on DMS-273.

In the case of `COc1ccc(N2C(=O)[C@@H]3[C@@H]4CC(C)CC[C@@H]4c4c([nH]c5ccccc45)[C@@H]3C2=O)cc1` (some centres undefined), the GI50 with M19-MEL was > 70.1 µM (inactive); in the assay with K562, 30.7 µM (inactive); in the assay with HT-29, 47.4 µM (inactive); in the assay on HL-60, 29.1 µM (inactive); in the assay with SN12C, 11.2 µM (inactive); with SK-MEL-5, 34 µM (inactive). Also, the GI50 was 12.6 µM (inactive) in the assay with SR; 36 µM (inactive) with SK-MEL-28; 18 µM (inactive) in the assay with OVCAR-4; 17.3 µM (inactive) with A549; > 77.6 µM (inactive) in the assay with OVCAR-5; 8.24 µM (inactive) with SNB-19. Moreover, the GI50 was 50.1 µM (inactive) in the assay with KM12 and 14.7 µM (inactive) with DMS-273.

With `COc1cc([C@@H]2c3cc4c(cc3[C@@H](NC(=O)c3ccc(C(C)=O)cc3)C3COC(=O)[C@@H]32)OCO4)cc(OC)c1O` (some centres undefined), the GI50 was 3.01 µM (inactive) in the assay on M19-MEL; 1.48 µM (inactive) with K562; 3.76 µM (inactive) in the assay on RXF 393; 1.5 µM (inactive) with HT-29; 0.0867 µM (active) with HL-60; 0.275 µM (active) with SN12C. Moreover, the GI50 with SK-MEL-5 is 1.46 µM (inactive); in the assay on SK-MEL-28 it was 2.98 µM (inactive); in the assay on OVCAR-4 it was 27.3 µM (inactive); with A549, 0.0311 µM (active); with OVCAR-5 it was 0.895 µM (active); with SNB-19, 0.29 µM (active). Besides, the figures for the GI50 with KM12 and in the assay on DMS-273 were 1.36 µM (inactive) and 0.0556 µM (active), respectively.

`O=C1NC(=O)C2C(=O)NC(=O)C1C2(c1ccccc1)c1ccc(Cl)cc1` (centres undefined): the GI50 with M19-MEL, in the assay on K562, in the assay on RXF 393, in the assay on HT-29, in the assay on HL-60 and in the assay on SN12C was > 100 µM (inactive) each time. Moreover, the GI50 in the assay with SK-MEL-5, in the assay on SK-MEL-28, in the assay with OVCAR-4, with A549, with OVCAR-5 and in the assay on SNB-19 was > 100 µM (inactive) throughout. Further, the GI50 in the assay on KM12 and with DMS-273 was > 100 µM (inactive) each time.

For `CC1=C2O[B-](c3ccccc3)(c3ccccc3)[O+]=C2C=CN1`, the GI50 was 62.4 µM (inactive) in the assay with M19-MEL; 40.4 µM (inactive) in the assay on K562; 26.4 µM (inactive) with RXF 393; 54.7 µM (inactive) in the assay on HT-29; 27.4 µM (inactive) in the assay on HL-60; 45.7 µM (inactive) with SN12C. In addition, the GI50 in the assay on SK-MEL-5 was 21.5 µM (inactive); with SK-MEL-28, 29.6 µM (inactive); in the assay with OVCAR-4 it was 64.7 µM (inactive); in the assay with A549 it was 58.3 µM (inactive); in the assay on SNB-19, 37.3 µM (inactive); with DMS-273 it was 45.9 µM (inactive).

For the molecule `CN1Cc2c(nc(-c3ccccc3)c[n+]2[O-])N(C)C1`, the GI50 in the assay with M19-MEL, in the assay with K562, in the assay on HT-29, in the assay on HL-60, in the assay on SN12C and in the assay on SK-MEL-5 was > 100 µM (inactive) in each case. Further, the GI50 with SK-MEL-28, with OVCAR-4, in the assay with A549, in the assay on OVCAR-5, with SNB-19 and in the assay on KM12 was > 100 µM (inactive) in each case. For the same molecule, the GI50 with DMS-273 was > 100 µM (inactive).

On to `C[N+](C)(C)C.FC(F)(F)C1(C(F)(F)F)O[SiH-]2(OC(C(F)(F)F)(C(F)(F)F)c3ccccc32)c2ccccc21`, for which the GI50 in the assay with M19-MEL was 18.2 µM (inactive); with K562, 5.87 µM (inactive); in the assay on RXF 393, 13 µM (inactive); in the assay with HT-29 it was 11.2 µM (inactive); in the assay on SN12C, 18.1 µM (inactive); in the assay with SR, 14.5 µM (inactive). The GI50 is 26.2 µM (inactive) in the assay with SK-MEL-28; 6.47 µM (inactive) in the assay on OVCAR-4; 10 µM (inactive) with A549; 13.2 µM (inactive) in the assay with OVCAR-5; 7.18 µM (inactive) with SNB-19; 19.9 µM (inactive) with KM12. In addition, in the assay with DMS-273, the GI50 was 20.1 µM (inactive).

`O=C(CCN(C(=O)O)S(=O)(=O)c1ccc(NC(=O)c2ccccc2)cc1)NC1CCCCC1`: the GI50 was 59.7 µM (inactive) with M19-MEL; 27.4 µM (inactive) with K562; 21.6 µM (inactive) with HT-29; 30.3 µM (inactive) with HL-60; > 100 µM (inactive) in the assay on SN12C; > 100 µM (inactive) in the assay with SK-MEL-5. Further, the GI50 was 17.8 µM (inactive) in the assay on SR; > 100 µM (inactive) in the assay with SK-MEL-28; > 100 µM (inactive) in the assay with OVCAR-4; > 100 µM (inactive) in the assay on A549; > 100 µM (inactive) in the assay on OVCAR-5; > 100 µM (inactive) in the assay on SNB-19. For the same molecule, the results for the GI50 in the assay on KM12 and in the assay with DMS-273 were > 100 µM (inactive) and 21.7 µM (inactive), respectively.
